These results are taken from patent publication US11046658B2, “Aminopyrazine derivatives as PI3K-γ inhibitors” (Incyte Corporation, priority 2018, dated 2021).

Counter-ions that a name gives are not always drawn.

The subject of the first experiment is Phosphorylated Ribosomal Protein S6 (RPS6) in THP-1 cells. Briefly: THP-1 RPS6 ELISA Assay. The experiment is classed as cell-based, Human. Particulars: Homo sapiens, THP-1, read-out: PI3Kγ_THP1_RPS6_ELISA IC50 (nM). The procedure:
To measure the Phosphorylated Ribosomal Protein S6 (RPS6) in cell lysates, THP-1 cells (Human Acute Monocytic Leukemia) are purchased from ATCC (Manassas, Va.) and maintained in RPMI with 10% FBS (Gibco/Life Technologies, Carlsbad, Calif.). For the assay, THP-1 cells are serum starved overnight in RPMI, then plated in RPMI (2×10^5 cells/well in 90 μL) into 96-well flat-bottom tissue culture treated plates (Corning, Corning, N.Y.), in the presence or absence of a concentration range of test compounds. Covered plates are incubated for 2 hours at 37° C., 5% CO2 then treated with or without 10 nM MCP-1(MYBioSource, San Diego, Calif.) for 15 minutes at 37° C., 5% CO2. Plates are centrifuged at 1600 RPM and supernatants are removed. Cells are lysed in Lysis Buffer (Cell Signaling, Danvers, Mass.) with Protease Inhibitor (Calbiochem/EMD, Germany), PMSF (Sigma, St Louis Mo.), HALTS (Thermo Fisher, Rockford, Ill.) for 30 min on wet ice. Cell lysates are frozen at −80 OC before testing. The lysates are tested in the Human/Mouse/Rat Phospho-RPS6 ELISA (R&D Systems, Inc. Minn, Minn.). The plate is measured using a microplate reader (SpectraMax M5—Molecular Devices, LLC Sunnyvale, Calif.) set to 450 nm with a wavelength correction of 540. IC50 determination is performed by fitting the curve of inhibitor percent inhibition versus the log of the inhibitor concentration using the GraphPad Prism 5.0 software.
A general note: An ELISA detects its analyte on a solid surface through an enzyme-linked reagent.
As usually defined, the IC50 is the concentration needed to halve the response being measured. On to `Cc1ccc(C(O)(C(N)=O)C(F)(F)F)cc1-c1cnc(N)c(N2CCN(c3ccccn3)CC2)n1` (stereo not shown) [Example 117, 2-(3-(5-amino-6-(4-(pyridin-2-yl)piperazin-1-yl)pyrazin-2-yl)-4-methylphenyl)-3,3,3-trifluoro-2-hydroxypropanamide trifluoroacetate], for which the IC50 was < 100 nM.
On the same count and under the same terms, the result for `Cc1ccc(C(O)(C(N)=O)C(F)(F)F)cc1-c1cnc(N)c(N2CCN(C(=O)c3ccco3)CC2)n1` (stereo not shown) [Example 127, 2-(3-(5-amino-6-(4-(furan-2-carbonyl)piperazin-1-yl)pyrazin-2-yl)-4-methylphenyl)-3,3,3-trifluoro-2-hydroxypropanamide trifluoroacetate] reads < 100 nM.

The same experiment, now with this note: Homo sapiens; Table A1; THP-1 cells, 10 nM MCP-1; read-out: PI3Kγ_THP1_RPS6_ELISA IC50.
Regarding `Cc1ccc(C(O)(C(N)=O)C(F)F)cc1-c1cnc(N)c(C(=O)NC(C)(C)CO)n1` (stereo not shown) [Example 35, 3-amino-6-(5-(1-amino-3,3-difluoro-2-hydroxy-1-oxopropan-2-yl)-2-methylphenyl)-N-(1-hydroxy-2-methylpropan-2-yl)pyrazine-2-carboxamide], the IC50 is < 100 nM.
Same read-out and setting: then `Cc1ccc(C(O)(C(N)=O)C(F)(F)F)cc1-c1cnc(N)c(C(=O)NCC(O)C(F)(F)F)n1` (single isomer, unassigned) [Example 43A, 3-amino-6-(5-(3-amino-1,1,1-trifluoro-2-hydroxy-3-oxopropan-2-yl)-2-methylphenyl)-N-(3,3,3-trifluoro-2-hydroxypropyl)pyrazine-2-carboxamide], with < 100 nM.
Take `CC[C@@H](CC#N)NC(=O)c1nc(-c2cc(C(O)(C(N)=O)C(F)(F)F)ccc2C)cnc1N` (stereo partly drawn) [Example 20, 3-amino-6-(5-(3-amino-1,1,1-trifluoro-2-hydroxy-3-oxopropan-2-yl)-2-methylphenyl)-N-((S)-1-cyanobutan-2-yl)pyrazine-2-carboxamide trifluoroacetate]: the IC50 was < 100 nM.
Turning to `Cc1ccc(C(O)(C(N)=O)C(F)(F)F)cc1-c1cnc(N)c(C(=O)NCC(C)(C)O)n1` (stereo not shown) [Example 1, 3-Amino-6-(5-(3-amino-1,1,1-trifluoro-2-hydroxy-3-oxopropan-2-yl)-2-methylphenyl)-N-(2-hydroxy-2-methylpropyl)pyrazine-2-carboxamide], the IC50 was < 100 nM.
As for `Cc1ccc(C(O)(C(N)=O)C(F)(F)F)cc1-c1cnc(N)c(C(=O)N[C@H]2CCCOC2)n1` (stereo partly drawn) [Example 10, 3-amino-6-(5-(3-amino-1,1,1-trifluoro-2-hydroxy-3-oxopropan-2-yl)-2-methylphenyl)-N-((S)-tetrahydro-2H-pyran-3-yl)pyrazine-2-carboxamide trifluoroacetate], the IC50 was < 100 nM.
`Cc1ccc(C(O)(C(N)=O)C(F)(F)F)cc1-c1cnc(N)c(C(=O)N[C@@H](C)CC#N)n1` (stereo partly drawn) [Example 8, 3-amino-6-(5-(3-amino-1,1,1-trifluoro-2-hydroxy-3-oxopropan-2-yl)-2-methylphenyl)-N-((S)-1-cyanopropan-2-yl)pyrazine-2-carboxamide trifluoroacetate]: the IC50 is < 100 nM.

The same experiment, now with this note: Homo sapiens; Table A2; THP-1 cells, 10 nM MCP-1; read-out: PI3Kγ_THP1_RPS6_ELISA IC50.
`Cc1ccc(C(O)(C(N)=O)C(F)(F)F)cc1-c1cnc(N)c(C#Cc2ccc(C#N)cc2)n1` (stereo not shown) [Example 58, 2-(3-(5-amino-6-((4-cyanophenyl)ethynyl)pyrazin-2-yl)-4-methylphenyl)-3,3,3-trifluoro-2-hydroxypropanamide]: the IC50 is < 100 nM.
`Cc1ccc(C(O)(C(N)=O)C(F)(F)F)cc1-c1cnc(N)c(C#CC(C)(C)O)n1` (stereo not shown) [Example 50, 2-(3-(5-amino-6-(3-hydroxy-3-methylbut-1-ynyl)pyrazin-2-yl)-4-methylphenyl)-3,3,3-trifluoro-2-hydroxypropanamide]: the IC50 was < 100 nM.
Take `Cc1ccc(C(O)(C(N)=O)C(F)(F)F)cc1-c1cnc(N)c(C#CC2(O)CCN(C)C2=O)n1` (stereo not shown) [Example 65, 2-(3-(5-amino-6-((3-hydroxy-1-methyl-2-oxopyrrolidin-3-yl)ethynyl)pyrazin-2-yl)-4-methylphenyl)-3,3,3-trifluoro-2-]: the IC50 was < 100 nM.
On to `Cc1ccc(C(O)(C(N)=O)C(F)(F)F)cc1-c1cnc(N)c(C#CC(C)C)n1` (stereo not shown) [Example 49, 2-(3-(5-amino-6-(3-methylbut-1-ynyl)pyrazin-2-yl)-4-methylphenyl)-3,3,3-trifluoro-2-hydroxypropanamide], for which the IC50 was < 500 nM.
Consider `COc1cc(C#Cc2nc(-c3cc(C(O)(C(N)=O)C(F)(F)F)ccc3C)cnc2N)cc(OC)c1` (stereo not shown) [Example 60, 2-(3-(5-amino-6-((3,5-dimethoxyphenyl)ethynyl)pyrazin-2-yl)-4-methylphenyl)-3,3,3-trifluoro-2-hydroxypropanamide], for which the IC50 is < 100 nM.
On to `Cc1ccc(C(O)(C(N)=O)C(F)(F)F)cc1-c1cnc(N)c(C#CC(C)(O)C(C)C)n1` (stereo not shown) [Example 62, 2-(3-(5-amino-6-(3-hydroxy-3,4-dimethylpent-1-ynyl)pyrazin-2-yl)-4-methylphenyl)-3,3,3-trifluoro-2-hydroxypropanamide], for which the IC50 is < 100 nM.
For the compound `Cc1ccc(C(O)(C(N)=O)C(F)(F)F)cc1-c1cnc(N)c(C#Cc2cncnc2)n1` (stereo not shown) [Example 56, 2-(3-(5-amino-6-(pyrimidin-5-ylethynyl)pyrazin-2-yl)-4-methylphenyl)-3,3,3-trifluoro-2-hydroxypropanamide], the IC50 is < 100 nM.
`Cc1ccc(C(O)(C(N)=O)C(F)(F)F)cc1-c1cnc(N)c(C#CCC(C)O)n1` (stereo not shown) [Example 51, 2-(3-(5-amino-6-(4-hydroxypent-1-ynyl)pyrazin-2-yl)-4-methylphenyl)-3,3,3-trifluoro-2-hydroxypropanamide]: the half-inhibitory concentration (IC50) is < 100 nM.

The experiment is the same for the next values; noted with them: Homo sapiens; Table A3; THP-1 cells, 10 nM MCP-1; read-out: PI3Kγ_THP1_RPS6_ELISA IC50.
Turning to `CC(=O)NCC(O)(c1ccc(C)c(-c2cnc(N)c(-c3cn[nH]c3)n2)c1)C(F)(F)F` (stereo not shown) [Example 105, N-(2-(3-(5-amino-6-(1H-pyrazol-4-yl)pyrazin-2-yl)-4-methylphenyl)-3,3,3-trifluoro-2-hydroxypropyl)acetamide trifluoroacetate], the IC50 was < 100 nM.
Take `Cc1ccc(C(O)(C(N)=O)C(F)(F)F)cc1-c1cnc(N)c(-n2cccn2)n1` (stereo not shown) [Example 93, 2-(3-(5-Amino-6-(1H-pyrazol-1-yl)pyrazin-2-yl)-4-methylphenyl)-3,3,3-trifluoro-2-hydroxypropanamide]: the half-inhibitory concentration (IC50) is < 100 nM.
Turning to `Cc1ccc(C(O)(C(N)=O)C(F)F)cc1-c1cnc(N)c(-c2ccnn2C)n1` (stereo not shown) [Example 98, 2-(3-(5-Amino-6-(1-methyl-1H-pyrazol-5-yl)pyrazin-2-yl)-4-methylphenyl)-3,3-difluoro-2-hydroxypropanamide], the IC50 is < 100 nM.
Turning to `Cc1ccc(C(O)(C(N)=O)C(F)(F)F)cc1-c1cnc(N)c(-c2ccc(CO)cc2)n1` (stereo not shown) [Example 88, 2-(3-(5-amino-6-(4-(hydroxymethyl)phenyl)pyrazin-2-yl)-4-methylphenyl)-3,3,3-trifluoro-2-hydroxypropanamide trifluoroacetate], the IC50 is < 500 nM.
For the compound `Cc1ccc(C(O)(C(N)=O)C(F)(F)F)cc1-c1cnc(N)c(-c2ccc(CC#N)cc2)n1` (stereo not shown) [Example 87, 2-(3-(5-amino-6-(4-(cyanomethyl)phenyl)pyrazin-2-yl)-4-methylphenyl)-3,3,3-trifluoro-2-hydroxypropanamide trifluoroacetate], the IC50 was < 500 nM.
Turning to `Cc1ccc(C(O)(C(N)=O)C(F)(F)F)cc1-c1cnc(N)c(-c2ccc(C(F)(F)F)nc2)n1` (stereo not shown) [Example 83, 2-(3-(5-amino-6-(6-(trifluoromethyl)pyridin-3-yl)pyrazin-2-yl)-4-methylphenyl)-3,3,3-trifluoro-2-hydroxypropanamide bistrifluoroacetate], the IC50 is < 500 nM.

Still in this experiment, the particulars now being: Homo sapiens; Table A4; THP-1 cells, 10 nM MCP-1; cells given with + symbol; read-out: PI3Kγ_THP1_RPS6_ELISA IC50.
With `Cc1ccc(C(O)(C(N)=O)C(F)(F)F)cc1-c1cnc(N)c(N2CCN(c3nccnc3C#N)CC2)n1` (stereo not shown) [Example 128, 2-(3-(5-amino-6-(4-(3-cyanopyrazin-2-yl)piperazin-1-yl)pyrazin-2-yl)-4-methylphenyl)-3,3,3-trifluoro-2-hydroxypropanamide trifluoroacetate], the IC50 was < 100 nM.
`Cc1ccc(C(O)(C(N)=O)C(F)(F)F)cc1-c1cnc(N)c(N2CCN(c3ccccc3C#N)CC2)n1` (stereo not shown) [Example 122, 2-(3-(5-amino-6-(4-(2-cyanophenyl)piperazin-1-yl)pyrazin-2-yl)-4-methylphenyl)-3,3,3-trifluoro-2-hydroxypropanamide trifluoroacetate]: the IC50 is < 100 nM.
Consider `Cc1ccc(C(O)(C(N)=O)C(F)(F)F)cc1-c1cnc(N)c(N2CCN(c3cncs3)CC2)n1` (stereo not shown) [Example 120, 2-(3-(5-amino-6-(4-(thiazol-5-yl)piperazin-1-yl)pyrazin-2-yl)-4-methylphenyl)-3,3,3-trifluoro-2-hydroxypropanamide trifluoroacetate], for which the IC50 was < 100 nM.
